Assay [1] relates to HLA-A*24. The assay can be described thus: MHC binding assay, UV-ligand exchange with β2m ELISA, HLA-A*24 (Table 21). On the set-up: species or system human. Conditions: binding to HLA-A*24 ranged by peptide exchange yield (UV-ligand exchange, β2m ELISA). The text has this: (§1) Candidate peptides for T cell based therapies according to the present invention were further tested for their MHC binding capacity (affinity). The individual peptide-MHC complexes were produced by UV-ligand exchange, where a UV-sensitive peptide is cleaved upon UV-irradiation, and exchanged with the peptide of interest as analyzed. Only peptide candidates that can effectively bind and stabilize the peptide-receptive MHC molecules prevent dissociation of the MHC complexes. To determine the yield of the exchange reaction, an ELISA was performed based on the detection of the light chain ((β2m) of stabilized MHC complexes. The assay was performed as generally described in Rodenko et al. (Rodenko et al., 2006).
(§2) 96 well MAXISorp plates (NUNC) were coated over night with 2 ug/ml streptavidin in PBS at room temperature, washed 4× and blocked for 1 h at 37° C. in 2% BSA containing blocking buffer. Refolded HLA-A*02:01/MLA-001 monomers served as standards, covering the range of 15-500 ng/ml. Peptide-MHC monomers of the UV-exchange reaction were diluted 100 fold in blocking buffer. Samples were incubated for 1 h at 37° C., washed four times, incubated with 2 ug/ml HRP conjugated anti-β2m for 1 h at 37° C., washed again and detected with TMB solution that is stopped with […]. Absorption was measured at 450 nm. Candidate peptides that show a high exchange yield (preferably higher than 50%, most preferred higher than 75%) are generally preferred for a generation and production of antibodies or fragments thereof, and/or T cell receptors or fragments thereof, as they show sufficient avidity to the MHC molecules and prevent dissociation of the MHC complexes.
A general note: In an ELISA, binding on a coated surface is turned into a signal by an enzyme label.

Assay [2] concerns HLA-A*02. Description: MHC binding assay, UV-ligand exchange with β2m ELISA, HLA-A*02 (Table 20). On the set-up: species or system human. The following applies: binding to HLA-A*02 ranged by peptide exchange yield (UV-ligand exchange, β2m ELISA).
Excerpt: as §1, §2

In the case of “223 (KYIPYKYVI; listed as Homo sapiens) [compound 223]”, the Peptide exchange result in assay [1] is “+++ (50%-75% = +++)”.

As to “286 (RYPDNLKHL; listed as Homo sapiens) [compound 286]”, the Peptide exchange result in assay [1] was “++ (20%-49% = ++)”.

For “214 (LYLKLWNLI; listed as Homo sapiens) [compound 214]”, the Peptide exchange entry in assay [1] is recorded as “+++ (50%-75% = +++)”.

On to “189 (WYVNGVNYF; listed as Homo sapiens) [compound 189]”, for which the Peptide exchange entry in assay [1] is “++ (20%-49% = ++)”.

Turning to “180 (IYDDSFIRPVTF; listed as Homo sapiens) [compound 180]”, the Peptide exchange entry in assay [1] is recorded as “+++ (50%-75% = +++)”.

For the substance “191 (VFKASKITF; listed as Homo sapiens) [compound 191]”, the Peptide exchange result in assay [1] was “+++ (50%-75% = +++)”.

Consider “203 (FYSRLLQKF; listed as Homo sapiens) [compound 203]”, for which, in assay [1], the Peptide exchange result was “+++ (50%-75% = +++)”.

Regarding “172 (TYTTVPRVAF; listed as Homo sapiens) [compound 172]”, the Peptide exchange entry in assay [1] is given as “++++ (≧75% = ++++)”.

In the case of “282 (KFVDSTFYL; listed as Homo sapiens) [compound 282]”, in assay [1], the Peptide exchange result was “++++ (≧75% = ++++)”.

Regarding “182 (IYQLDTASI; listed as Homo sapiens) [compound 182]”, the Peptide exchange entry in assay [1] is given as “+++ (50%-75% = +++)”.

Turning to “221 (RYSTGLAGNLL; listed as Homo sapiens) [compound 221]”, in assay [1], the Peptide exchange result is “+++ (50%-75% = +++)”.

“208 (TYTQDFNKF; listed as Homo sapiens) [compound 208]”: the Peptide exchange result in assay [1] was “+++ (50%-75% = +++)”.

As for “187 (TYLRDQHFL; listed as Homo sapiens) [compound 187]”, the Peptide exchange result in assay [1] is recorded as “++++ (≧75% = ++++)”.

Regarding “226 (VYRDETGELF; listed as Homo sapiens) [compound 226]”, in assay [1], the Peptide exchange entry is given as “+++ (50%-75% = +++)”.

Turning to “192 (SYALLTYMI; listed as Homo sapiens) [compound 192]”, the Peptide exchange result in assay [1] is “++++ (≧75% = ++++)”.

For “170 (VYEDQVGKF; listed as Homo sapiens) [compound 170]”, the Peptide exchange result in assay [1] is recorded as “++ (20%-49% = ++)”.

Regarding “287 (LYITEPKTI; listed as Homo sapiens) [compound 287]”, the Peptide exchange result in assay [1] is “+++ (50%-75% = +++)”.

For the substance “198 (LYLDKATLI; listed as Homo sapiens) [compound 198]”, the Peptide exchange entry in assay [1] is recorded as “+++ (50%-75% = +++)”.

Take “279 (TYIESASEL; listed as Homo sapiens) [compound 279]”: the Peptide exchange entry in assay [1] is given as “+++ (50%-75% = +++)”.

With “276 (VYGFQWRHF; listed as Homo sapiens) [compound 276]”, the Peptide exchange result in assay [1] is on record as “++++ (≧75% = ++++)”.

For “280 (RYPDNLKHLYL; listed as Homo sapiens) [compound 280]”, in assay [1], the Peptide exchange result is on record as “++++ (≧75% = ++++)”.

On to “227 (IFLDYEAGTLSF; listed as Homo sapiens) [compound 227]”, for which the Peptide exchange result in assay [1] is “++++ (≧75% = ++++)”.

For the substance “225 (YYVYIMNHL; listed as Homo sapiens) [compound 225]”, the Peptide exchange entry in assay [1] was “+++ (50%-75% = +++)”.

For “177 (VYPWLGALL; listed as Homo sapiens) [compound 177]”, the Peptide exchange result in assay [1] is listed as “++++ (≧75% = ++++)”.

For the substance “275 (EYINQGDLHEF; listed as Homo sapiens) [compound 275]”, in assay [1], the Peptide exchange result is reported as “+++ (50%-75% = +++)”.

In the case of “184 (VFQNFPLLF; listed as Homo sapiens) [compound 184]”, the Peptide exchange result in assay [1] is “++++ (≧75% = ++++)”.

As to “271 (LYHDIFSRL; listed as Homo sapiens) [compound 271]”, in assay [1], the Peptide exchange entry is “++++ (≧75% = ++++)”.

“272 (QYLQDAYSF; listed as Homo sapiens) [compound 272]”: the Peptide exchange result in assay [1] is recorded as “++++ (≧75% = ++++)”.

Regarding “209 (TYKDEGNDYF; listed as Homo sapiens) [compound 209]”, the Peptide exchange entry in assay [1] is listed as “+++ (50%-75% = +++)”.

Consider “219 (EYPLVINTL; listed as Homo sapiens) [compound 219]”, for which the Peptide exchange entry in assay [1] is “+++ (50%-75% = +++)”.

Regarding “193 (RFHPTPLLL; listed as Homo sapiens) [compound 193]”, the Peptide exchange entry in assay [1] is on record as “++++ (≧75% = ++++)”.

Take “215 (YFDKVVTL; listed as Homo sapiens) [compound 215]”: the Peptide exchange result in assay [1] is “++ (20%-49% = ++)”.

For the substance “278 (RYISDQLFTNF; listed as Homo sapiens) [compound 278]”, in assay [1], the Peptide exchange entry is given as “++++ (≧75% = ++++)”.

As to “195 (TYSVSFPMF; listed as Homo sapiens) [compound 195]”, the Peptide exchange entry in assay [1] is “++++ (≧75% = ++++)”.

As for “186 (IFPQFLYQF; listed as Homo sapiens) [compound 186]”, the Peptide exchange entry in assay [1] is “++++ (≧75% = ++++)”.

“179 (MYDSYWRQF; listed as Homo sapiens) [compound 179]”: in assay [1], the Peptide exchange entry was “++++ (≧75% = ++++)”.

As for “164 (KFSSFSLFF; listed as Homo sapiens) [compound 164]”, the Peptide exchange entry in assay [1] is given as “+++ (50%-75% = +++)”.

As to “185 (IYKVGAPTI; listed as Homo sapiens) [compound 185]”, in assay [1], the Peptide exchange result is on record as “+++ (50%-75% = +++)”.

As for “190 (GFFIFNERF; listed as Homo sapiens) [compound 190]”, the Peptide exchange result in assay [1] was “+++ (50%-75% = +++)”.

Turning to “228 (KYTSWYVAL; listed as Homo sapiens) [compound 228]”, the Peptide exchange entry in assay [1] is on record as “++++ (≧75% = ++++)”.

Take “283 (TYGDAGLTYTF; listed as Homo sapiens) [compound 283]”: the Peptide exchange entry in assay [1] is on record as “+++ (50%-75% = +++)”.

Turning to “267 (KYMVYPQTF; listed as Homo sapiens) [compound 267]”, in assay [1], the Peptide exchange result is on record as “++++ (≧75% = ++++)”.

For the substance “210 (IYTMIYRNL; listed as Homo sapiens) [compound 210]”, in assay [1], the Peptide exchange entry is “++++ (≧75% = ++++)”.

As to “288 (VYVSDIQEL; listed as Homo sapiens) [compound 288]”, in assay [1], the Peptide exchange entry is “+++ (50%-75% = +++)”.

As to “178 (IFIEVFSHF; listed as Homo sapiens) [compound 178]”, the Peptide exchange result in assay [1] was “+++ (50%-75% = +++)”.

For the substance “277 (VYQGHTALL; listed as Homo sapiens) [compound 277]”, the Peptide exchange result in assay [1] is on record as “++++ (≧75% = ++++)”.

Regarding “224 (QYLENLEKL; listed as Homo sapiens) [compound 224]”, in assay [1], the Peptide exchange entry is given as “+++ (50%-75% = +++)”.

With “188 (RYFKGLVF; listed as Homo sapiens) [compound 188]”, the Peptide exchange entry in assay [1] is reported as “+++ (50%-75% = +++)”.

Consider “84 (ALCPRIHEV; listed as Homo sapiens) [compound 84]”, for which the Peptide exchange entry in assay [2] was “++++ (≧75% = ++++)”.

As to “106 (FINDSIVYL; listed as Homo sapiens) [compound 106]”, in assay [2], the Peptide exchange entry is recorded as “+++ (50%-75% = +++)”.

“32 (VQLDSIEDLEV; listed as Homo sapiens) [compound 32]”: the Peptide exchange result in assay [2] is “+++ (50%-75% = +++)”.

Consider “255 (SLLHFTENL; listed as Homo sapiens) [compound 255]”, for which, in assay [2], the Peptide exchange result is on record as “+++ (50%-75% = +++)”.

As to “155 (LLNPVVEFV; listed as Homo sapiens) [compound 155]”, the Peptide exchange entry in assay [2] is “+++ (50%-75% = +++)”.

As to “56 (FLHDEKEGIYI; listed as Homo sapiens) [compound 56]”, the Peptide exchange result in assay [2] is given as “+++ (50%-75% = +++)”.

Turning to “16 (YTLDIPVLFGV; listed as Homo sapiens) [compound 16]”, the Peptide exchange entry in assay [2] is recorded as “++++ (≧75% = ++++)”.

“125 (SLADYEHFV; listed as Homo sapiens) [compound 125]”: in assay [2], the Peptide exchange entry is “++++ (≧75% = ++++)”.

As to “124 (KVMATIEKV; listed as Homo sapiens) [compound 124]”, the Peptide exchange entry in assay [2] was “++ (20%-49% = ++)”.

In the case of “87 (TIYKDFVYI; listed as Homo sapiens) [compound 87]”, in assay [2], the Peptide exchange entry is reported as “++ (20%-49% = ++)”.

For the substance “252 (RLMEICESL; listed as Homo sapiens) [compound 252]”, the Peptide exchange result in assay [2] is reported as “+++ (50%-75% = +++)”.

Regarding “34 (FLLATEVVTV; listed as Homo sapiens) [compound 34]”, the Peptide exchange result in assay [2] is on record as “++++ (≧75% = ++++)”.

As for “236 (STIAILNSV; listed as Homo sapiens) [compound 236]”, the Peptide exchange entry in assay [2] is “+++ (50%-75% = +++)”.

Turning to “51 (LLFSRLCGA; listed as Homo sapiens) [compound 51]”, in assay [2], the Peptide exchange result was “++++ (≧75% = ++++)”.

On to “157 (TLTSLLAQA; listed as Homo sapiens) [compound 157]”, for which the Peptide exchange result in assay [2] is reported as “+++ (50%-75% = +++)”.

As to “74 (TLFGYSVVL; listed as Homo sapiens) [compound 74]”, the Peptide exchange entry in assay [2] is “+++ (50%-75% = +++)”.

Source of the values: patent publication US20170189504A1, “NOVEL PEPTIDES AND COMBINATION OF PEPTIDES FOR USE IN IMMUNOTHERAPY AGAINST VARIOUS CANCERS” (immatics biotechnologies GmbH, priority 2015, published 2017).
